Reference: US20240271138A1, “METHODS AND COMPOSITIONS FOR MODULATING STING SIGNALING AND INNATE IMMUNE RESPONSES” (The Broad Institute, Inc., priority 2021, published 2024)

Columns and labels:
[1] = test system: CD14+ monocytes; experiment: Immunoblot of phospho-STING in CD14+ monocytes from healthy donors; assay type: cell-based, human; settings: 5 μg/mL 2′3′-cGAMP, 6 hours, MLN7243, FIG. 12K
From the text: FIGS. 12A-12O show involvement of ESCRT components in ubiquitination and degradation of STING. […] One representative blot of n=2 independent experiments. […] One representative plot of n=3 technical replicates. […] Each dot represents one technical replicate. Paired t-test, *** p<0.001. […] One representative plot of n=3 independent experiments with n=2 technical replicates per experiment. […] Each dot represents an individual replicate. One-way ANOVA with Dunnet's multiple comparisons. **** p<0.0001, *** p<0.001. […] FIGS. 12G-12J show immunofluorescence in 293T stably expressing STING-HA after stimulation with cGAMP for 2 hours. […] Dashed boxes represent the cropped regions shown in the right panels. One representative field of n≥5 fields in n=2 independent experiments. Scale bar is 10 μm. […] One representative blot of n=3 independent donors in n=2 independent experiments. […] One representative experiment of n=3 independent experiments with n=2 technical replicates. […] Friedman test with Dunn's multiple comparison test. **** p<0.0001, ** p<0.01, ns: not significant.
CD14+ monocytes were isolated from peripheral adult human blood as previously described 1. […]
Samples for pull-downs or immunoprecipitations were treated as described in the corresponding paragraphs. […] ECL signal was recorded on a ChemiDoc Biorad Imager. Data was analyzed with ImageLab (Biorad).

[2] = test system: STING-mNeonGreen; experiment: STING degradation in 293T STING-mNeonGreen reporter cell line by flow cytometry; settings: 293T STING-mNG; 4 μg/mL 2′3′-cGAMP(pS)2; 0.5 μM MLN7243; FIGS. 5A-5B
Procedure: MLN7243 (Selleckchem) was used at 0.5 μM in all experiments. All cell lines were pre-treated for one hour before cGAMP stimulation. […] Cells were stimulated with 300 μL cGAMP permeabilization buffer containing 0.5 μg/mL 2′3′-cGAMP for 10 minutes, washed with 3 mL of medium, and medium was then replaced. MLN7243 was added again after medium replacement. Cells were stimulated for the indicated times.
Cells were then washed twice with Cytoperm and resuspended in FACS buffer for flow cytometry. Acquisition was performed on a Cytoflex S or Cytoflex LX (Beckman Coulter). Data was analyzed with FlowJo (BD).

[3] = test system: STING association with ESCRT (HGS, VPS37A) and TBK1; experiment: STING-TurboID proximity biotin labeling and streptavidin pull-down in 293T; assay type: cell-based, human; settings: 293T STING-TurboID; 3 hours; 0.5 μM MLN7243; FIG. 5C
Procedure: Generation of cells and stimulation. 293T cells were transduced with pTRIP-hPGK-Blast-2A-STING-TurboID and selected with 15 μg/mL Blasticidin (Invivogen) for one week. To test the construct via pull-down, 0.8 million cells were seeded in a 6 well plate. The following day, cells were permeabilized with 300 μl/well of cGAMP permeabilization buffer [50 mM HEPES (Corning), 100 mM KCl (Thermo Fisher), 3 mM MgCl2 (Thermo Fisher), 0.1 mM DTT (Thermo fisher), 85 mM Sucrose (Thermo Fisher), 0.5 mM ATP (Cayman chemicals), 0.1 mM GTP (Cayman Chemicals), 0.2% BSA (Seracare), 0.001% Digitonin (Promega)| containing 1 μg/mL 2′3′-cGAMP (Invivogen) or water for 10 minutes at 37° C., washed with 3 mL of warm medium and then medium was replaced. For mass-spec, 6 million cells were seeded in a 10 cm dish for each condition. Cells were stimulated with 2.8 mL of cGAMP permeabilization buffer containing 6 μg total of cGAMP per dish. Cells were left stimulating for the desired times and 500 μM biotin (Cayman chemicals) was added in each well 30 minutes prior to harvest. Cells were harvested by trypsinization, washed 3 times in cold PBS and pellets were frozen until processing. For experiments in 6 well plates, 3 wells per condition were harvested. For experiments in 10 cm dishes, one dish per condition was harvested.
Pull-down. […]

For `NS(=O)(=O)OC[C@H]1C[C@@H](Nc2ccnc3cc(-c4cccc(SC(F)(F)F)c4)nn23)[C@H](O)[C@@H]1O` [MLN7243], the phospho-STING levels [1] was “strong increase in phospho-STING levels”, the “degradation of STING (% STING-mNG positive cells)” value [2] was “complete block of degradation of STING” and the “biotin labeling of HGS and VPS37A by STING-TurboID” value [3] was “reduced the biotin labeling of HGS and VPS37A”. The “biotin labeling of TBK1 by STING-TurboID” value [3] was “unaffected”.
